What was measured:
E. coli strain UZ_TEM104 = assay type: cell-based; conditions: additive at fixed 50 μg/mL
TEM-1 = biological target: T1, TEM-1 (Escherichia coli, UniProt P62593); experiment: thermal denaturation with right-angle/static light scattering (aggregation) in presence of beta-lactamase inhibitors; assay type: biochemical, E. coli
T1 construct: DNA TEM (870 bp) or SHV (894 bp) were each sub-cloned into a PUC57 vector cloning site NdeI/XhoI; His-tag (N); TEV cleavage site (N); made in house; host or cells: E. coli BL21 (DE3)
Source text: (FIG. 1E) Heat denaturation of TEM-1 monitored by intrinsic fluorescence plotted as the BaryCentric Mean (BCM) of the fluorescence emission spectrum in the presence (red) and absence (blue) of tazobactam. […] (FIG. 1F) Temperature-dependent evolution of the Right-Angle Light Scattering (RALS) intensity measured simultaneously with the data in FIG. 1G to monitor protein aggregation. […] (FIGS. 1G, 1H, 1I, and 1J) Same data as in FIG. 1F, but showing a dose-titration of different beta-lactamase inhibitors: tazobactam (FIG. 1G), clavulanate (FIG. 1H), vaborbactam (FIG. 1I) and avibactam (FIG. 1J). Each curve a single experiment, which was repeated in triplicate.
Then, we performed a thermal denaturation whilst simultaneously monitoring the intrinsic fluorescence as a measure of the folding status of the molecule (FIG. 1E), and the static light scattering as a measure of aggregation (FIG. 1F).

SHV-11 = biological target: T2, SHV-11 (Klebsiella pneumoniae, UniProt P0AD64); experiment: thermal denaturation with light scattering (aggregation) in presence of excess tazobactam; assay type: biochemical; conditions: SHV-11, excess of tazobactam
T2 construct: DNA TEM (870 bp) or SHV (894 bp) were each sub-cloned into a PUC57 vector cloning site NdeI/XhoI; His-tag (N); TEV cleavage site (N); made in house; host or cells: E. coli BL21 (DE3)

[1] = test system: uro-pathogenic E. coli strain (UPEC strain blaTEM-1); experiment: mouse Urinary Tract Infection (UTI) model; assay type: in vivo; conditions: 30 mg/kg ampicillin plus 10 mg/kg test substance; 24 h
Protocol: FIGS. 4A-4K. […] IV—Intravenous, IP—Intraperitoneal, SC—Subcutaneously. The data shown is from a single experiment with 4 animals per group. […] (ns—non significant, #—P>0.05, *—P≤0.05, ***—P≤0.01, ****—P≤0.001). (FIG. 4G) FICI plot as in FIG. 2, for the E. coli strains indicated and the combination of penicillin and the TEM3.2 peptide. […] (FIG. 4J) Same as FIG. 4H for peptide BGAL. (FIG. 4K) Same as FIG. 4H for peptide P33.
Vehicle alone (0.9% NaCl) was also administered (IV).
To test the efficacy of the peptides, urinary tract infection model was performed as described previously^65. Briefly, female C57BL/6Jax mice female mice were deprived from water for at least one hour. […] Mice were slowly inoculated urethrally with 50 μL of a bacterial suspension slowly (10^8 CFU/mouse) using a sterile catheter (The plastic intravenous cannula of the paediatric intravenous-access cannula (GS391350) in the bladder over 5 s in order to avoid vesicoureteral reflux. The catheter was then removed directly after inoculation. After surgery, the animals were visually monitored for full recovery. After 1 h post-inoculation, all mice received ampicillin (30 mg/kg_PO-orally) and at the same time 3 groups of animals received the peptides via different administration routes (10mg/kg_IV—Intravenous; IP—Intraperitoneal or SC—sub-cutaneous) and the positive control groups received tazobactam (10 mg/Kg, PO). […]

[2] = test system: TEM variants (TEM15, TEM30, TEM52, TEM10, TEM155); experiment: aggregation (RALS temperature ramp) of recombinant TEM variants in presence and absence of tazobactam; assay type: biochemical; conditions: presence versus absence of tazobactam
Source text: FIGS. 2A-2M. (FIG. 2A) TEM mutations and their effects on stability (total energy) as predicted by FoldX. […] Dashed line indicates a total energy difference of 0.5 kcal/mol, the FoldX cut-off above which mutations are considered to be destabilizing. (FIG. 2B) Barplot mapping mutations in (FIG. 2A) to the TEM sequence and indicating occurrence. […] The bar heights correspond to the number of times a mutation occurs across different TEM variants (right-hand y-axis). The color coding is identical to that in (FIG. 2A). Red line indicates the TANGO scores (indicated on the left-hand y-axis), with peaks corresponding to APRs. (FIG. 2C) Mapping of mutations in (FIG. 2A) and (FIG. 2B) to the TEM structure (pdb 1xpb). Protein surface is shown in gray, color coding of mutations is identical to (FIG. 2A) and (FIG. 2B). (FIGS. 2D, 2E, and 2F) Temperature-dependent evolution of the Right-Angle Light Scattering (RALS) intensity during a temperature ramp, similar as in FIG. 1F for key mutants of TEM1, namely TEM-10 (FIG. 2D), TEM-30 (FIG. 2E) and TEM-155 (FIG. 2F). Experiments were shown in triplicate, single repeat is shown. (FIG. 2G) Schematic representation of the structure of the peptides. APR—Aggregation Prone Region, R—Arginine. (FIG. 2H) Ribbon representation of the superposition of the crystal structures of TEM (green, pdb id 1bt5) and SHV (blue, pdb id 1shv). […]

T1 sequence (P62593 24-286 limits assumed): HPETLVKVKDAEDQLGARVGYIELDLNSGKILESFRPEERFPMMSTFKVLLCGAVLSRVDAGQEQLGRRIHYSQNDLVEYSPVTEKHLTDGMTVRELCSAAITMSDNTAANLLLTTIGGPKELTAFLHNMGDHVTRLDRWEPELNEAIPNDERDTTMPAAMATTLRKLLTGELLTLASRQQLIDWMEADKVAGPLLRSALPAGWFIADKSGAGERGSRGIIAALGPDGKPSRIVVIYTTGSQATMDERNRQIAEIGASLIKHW
T2 sequence (P0AD64 22-286 L31Q): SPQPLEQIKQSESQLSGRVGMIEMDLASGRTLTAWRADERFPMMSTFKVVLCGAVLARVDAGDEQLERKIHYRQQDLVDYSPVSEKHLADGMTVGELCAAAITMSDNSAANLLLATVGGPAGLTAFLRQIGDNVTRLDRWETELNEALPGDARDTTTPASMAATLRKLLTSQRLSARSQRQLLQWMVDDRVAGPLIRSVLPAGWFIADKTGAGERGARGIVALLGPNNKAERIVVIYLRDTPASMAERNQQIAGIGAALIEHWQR

C[C@]1(Cn2ccnn2)[C@H](C(=O)O)N2C(=O)C[C@H]2S1(=O)=O [tazobactam]
reduction of the MIC of penicillin G (E. coli strain UZ_TEM104): 4 fold | aggregation of the enzyme (static light scattering), dose-response (TEM-1; TEM-1, dose titration of inhibitor): reduce the aggregation of the enzyme in a dose-responsive manner | aggregation onset temperature Tagg (TEM-1; TEM-1, excess of tazobactam, more marked than for SHV-11): increase | aggregation onset temperature Tagg (SHV-11): increase | best reduction of the bacterial load (up to) [1]: 1.8 log folds | effect of tazobactam on aggregation of TEM variants [2]: pharmacological chaperone effect
